{
  "source": "paper PMC11013252",
  "about": "“Exploration of the Antibacterial and Anti-Inflammatory Activity of a Novel Antimicrobial Peptide Brevinin-1BW” (Molecules, 2024)",
  "key": {"[1]": {"system": "S. epidermidis (CI 1607BL1D39)", "experiment": "microbe, parasite or virus in culture", "assay_type": "cell-based, Staphylococcus epidermidis", "conditions": "CI 1607BL1D39, 18 h", "experimental": "(§1) The minimum inhibitory concentration (MIC) of the Brevinin-1BW was measured in 96-well microtiter plates according to the Clinical and Laboratory Standards Institute (CLSI). The activated strains were treated with Mueller Hinton Agar (MHA) solid medium. Single colonies were picked and expanded to the logarithmic growth phase, and the solution was diluted to 2 × 10^6 CFU/mL using the McFarland turbidity standard. The MIC was determined with the two-fold dilution method. Briefly, 50 μL of Mueller Hinton (MH) medium was added to a 96-well plate in advance. Then, 50 μL of AMP solution was added to the first well, and 50 μL was pipetted into the next well after mixing using a row gun, while 50 μL was discarded from the last well. Final concentrations of Brevinin-1BW were 100, 50, 25, 12.5, 6.25, and 3.125 μg/mL. A 50 μL volume of the diluted bacterial solution was added, and the final concentration of the bacterial solution was 1 × 10^6 CFU/mL. This was then placed into a 37 °C incubator for 18 h until the next day to observe the degree of turbidity of the 96-well plate and measure the absorbance of the wells at 600 nm with a multifunctional microplate reader (SpectraMax iD5, Molecular Devices, Sunnyvale, CA, USA). The absence of turbidity and the measured concentration of absorbance being less than the opposing group was taken as the MIC. The positive control used ampicillin at the same final concentration as Brevinin-1BW, the negative control used 50 μL of MH medium mixed with 50 μL of 2 × 10^6 CFU/mL bacterial solution, and the blank contained only 100 μL of MH medium. Three replicate wells were set up for each experiment, and each experiment was repeated three times. The MIC and all concentrations above the MIC of bacterial solution coated on MHA solid medium were placed into 37 °C incubator incubation for 18 h. The lowest concentration resulting in no colony growth was taken as the minimum bactericidal concentration (MBC)."}, "[2]": {"system": "S. haemolyticus (CI 1607BLD590)", "experiment": "microbe, parasite or virus in culture", "assay_type": "cell-based, Staphylococcus haemolyticus", "conditions": "CI 1607BLD590, 18 h", "experimental": "as §1"}, "[3]": {"system": "sheep erythrocytes", "assay_type": "cell-based", "conditions": "red cells of sheep, 2 h", "experimental": "A hemolytic assay of Brevinin-1BW was conducted using sheep erythrocytes (Solarbio, Beijing, China) at a concentration of 2% (v/v) of erythrocyte suspension. […] After centrifugation at 1000 rpm for 15 min, the absorbance of the supernatant was analyzed using a multifunctional enzyme standardizer with the wavelength set at 570 nm. The experiment was repeated three times. […] Haemolysis%=(A0−A2)/(A0−A1)×100"}, "[4]": {"system": "E. hormaechei (ATCC700323)", "experiment": "microbe, parasite or virus in culture", "assay_type": "cell-based, Enterobacter hormaechei", "conditions": "ATCC700323, 18 h", "experimental": "as §1"}, "[5]": {"system": "U-2OS", "assay_type": "cell-based, human", "conditions": "24 h", "experimental": "(§2) Medium was prepared to contain 10% FBS (TransGen Biotech, China) and 1% penicillin-streptomycin (Biosharp, Guangzhou, China). A549, U-2OS, HePG2, HaCaT, HUVEC, and 293T cells were cultured in DMEM medium (Gibco, New York, NY, USA). A375, HCT116, Hela, and RAW264.7 cells were cultured in RPMI 1640 medium (Gibco, New York, NY, USA). The cytotoxicity of Brevinin-1BW was determined using the Cell Counting Kit-8 as follows: detached the cells from cell culture flasks with 0.25% trypsin, counted with a hemocytometer plate and then prepared into a cell suspension containing 5 × 10^3 cells/mL. Then, 90 μL of the cell suspension was inoculated into a 96-well plate and incubated at 37 °C in a 5% CO2-humidified atmosphere for 24 h. A 10 μL volume of the peptide was subsequently added to each well and co-incubated with the cells for 24 h. Then, 10 μL of CCK8 (Abbkine, Wuhan, China) was added to each well and incubated for a further 2 h. The absorbance of each well at 450 nm was measured using a multifunctional enzyme marker. […] Three replicate wells were set up for each experiment, and each experiment was repeated three times. The formula for calculating the cell viability is shown below."}, "[6]": {"system": "293T", "assay_type": "cell-based, human", "conditions": "24 h", "experimental": "as §2"}, "[7]": {"system": "Hela", "assay_type": "cell-based, human", "conditions": "24 h", "experimental": "as §2"}, "[8]": {"system": "A549", "assay_type": "cell-based, human", "conditions": "24 h", "experimental": "as §2"}, "[9]": {"system": "A375", "assay_type": "cell-based, human", "conditions": "24 h", "experimental": "as §2"}, "[10]": {"system": "HUVEC", "assay_type": "cell-based, human", "conditions": "24 h", "experimental": "as §2"}, "[11]": {"system": "HCT116", "assay_type": "cell-based, human", "conditions": "24 h", "experimental": "as §2"}, "[12]": {"system": "HePG2", "assay_type": "cell-based, human", "conditions": "24 h", "experimental": "as §2"}, "[13]": {"system": "HaCaT", "assay_type": "cell-based, human", "conditions": "24 h", "experimental": "as §2"}, "[14]": {"system": "P. aeruginosa (ATCC27853)", "experiment": "microbe, parasite or virus in culture", "assay_type": "cell-based, Pseudomonas aeruginosa", "conditions": "ATCC27853, 18 h", "experimental": "as §1"}, "[15]": {"system": "S. saprophytics (ATCCBAA750)", "experiment": "microbe, parasite or virus in culture", "assay_type": "cell-based, Staphylococcus saprophyticus", "conditions": "ATCCBAA750, 18 h", "experimental": "as §1"}, "[16]": {"system": "S. aureus (ATCC 25923) biofilm formation", "assay_type": "cell-based, Staphylococcus aureus", "conditions": "ATCC 25923, 24 h", "experimental": "The plates were washed three times with sterile PBS and fixed with methanol for 0.5 h. After drying, the cells were stained with 1% crystal violet solution for 0.5 h. They were washed three times with deionized water and dissolved in 100 µL absolute ethanol. Absorbance was measured at 600 nm. Experiments were repeated four times independently."}, "[17]": {"system": "E. coli (MDR ATCC35218)", "experiment": "microbe, parasite or virus in culture", "assay_type": "cell-based, Escherichia coli", "conditions": "ATCC35218, 18 h", "experimental": "as §1"}},
  "note": "Read-outs that look alike come from different tables or passages of the source. Positions of bridges follow the written chain, without caps; N, C: chain ends. Residues, ends and D or L forms follow the SMILES beside them.",
  "data": [
    {"smiles": "CC[C@H](C)[C@@H]1NC(=O)[C@H](CCCCN)NC(=O)[C@@H](NC(=O)[C@H](Cc2ccccc2)NC(=O)[C@@H](NC(=O)[C@@H](NC(=O)[C@@H]2CCCN2C(=O)[C@H](CC(C)C)NC(=O)[C@H](Cc2ccccc2)NC(=O)[C@H](CO)NC(=O)[C@H](C)NC(=O)[C@H](C)NC(=O)[C@H](CC(C)C)NC(=O)CNC(=O)[C@H](C)NC(=O)[C@H](CC(C)C)NC(=O)[C@H](CC(C)C)NC(=O)[C@@H]2CCCN2C(=O)[C@H](CC(C)C)NC(=O)[C@@H](N)Cc2ccccc2)[C@@H](C)O)[C@@H](C)CC)CSSC[C@@H](C(=O)O)NC(=O)[C@H](CCCCN)NC(=O)[C@H](CCCNC(=N)N)NC(=O)[C@H](CO)NC1=O", "note": "[Brevinin-1BW] (H-FLPLLAGLAASFLPTIFCKISRKC-OH; disulfide 18-24)", "values": [
      {"measurement": "MBC", "setting": "[1]", "value": 25, "unit": "µg/mL"},
      {"measurement": "MIC", "setting": "[1]", "value": 12.5, "unit": "µg/mL"},
      {"measurement": "MBC", "setting": "[2]", "value": 25, "unit": "µg/mL"},
      {"measurement": "MIC", "setting": "[2]", "value": 12.5, "unit": "µg/mL"},
      {"measurement": "HC50 (50% hemolytic concentration)", "setting": "[3]", "value": 35.8, "unit": "µg/mL"},
      {"measurement": "MBC", "setting": "[4]", "value": ">100", "unit": "µg/mL"},
      {"measurement": "MIC", "setting": "[4]", "value": 100, "unit": "µg/mL"},
      {"measurement": "CC50", "setting": "[5]", "value": "39.20 ± 0.40", "unit": "µg/mL"},
      {"measurement": "CC50", "setting": "[6]", "value": "28.34 ± 1.08", "unit": "µg/mL"},
      {"measurement": "CC50", "setting": "[7]", "value": "37.62 ± 0.91", "unit": "µg/mL"},
      {"measurement": "CC50", "setting": "[8]", "value": "27.64 ± 0.41", "unit": "µg/mL"},
      {"measurement": "CC50", "setting": "[9]", "value": "23.79 ± 0.80", "unit": "µg/mL"},
      {"measurement": "CC50", "setting": "[10]", "value": "43.62 ± 0.77", "unit": "µg/mL"},
      {"measurement": "CC50", "setting": "[11]", "value": "35.44 ± 0.47", "unit": "µg/mL"},
      {"measurement": "CC50", "setting": "[12]", "value": "25.42 ± 0.49", "unit": "µg/mL"},
      {"measurement": "CC50", "setting": "[13]", "value": "36.84 ± 1.44", "unit": "µg/mL"},
      {"measurement": "MBC", "setting": "[14]", "value": ">100", "unit": "µg/mL"},
      {"measurement": "MIC", "setting": "[14]", "value": 100, "unit": "µg/mL"},
      {"measurement": "MBC", "setting": "[15]", "value": 12.5, "unit": "µg/mL"},
      {"measurement": "MIC", "setting": "[15]", "value": 6.25, "unit": "µg/mL"},
      {"measurement": "inhibition of biofilm formation", "setting": "[16]; 0.5", "value": 35.76, "unit": "%"},
      {"measurement": "inhibition of biofilm formation", "setting": "[16]; 2", "value": 83.67, "unit": "%"},
      {"measurement": "MBC", "setting": "[17]", "value": ">100", "unit": "µg/mL"},
      {"measurement": "MIC", "setting": "[17]", "value": ">100", "unit": "µg/mL"}
    ]}
  ]
}
